Experiment [1] addresses T1, Aurora A kinase (Homo sapiens, UniProt O14965).
T1 sequence (O14965 1-403): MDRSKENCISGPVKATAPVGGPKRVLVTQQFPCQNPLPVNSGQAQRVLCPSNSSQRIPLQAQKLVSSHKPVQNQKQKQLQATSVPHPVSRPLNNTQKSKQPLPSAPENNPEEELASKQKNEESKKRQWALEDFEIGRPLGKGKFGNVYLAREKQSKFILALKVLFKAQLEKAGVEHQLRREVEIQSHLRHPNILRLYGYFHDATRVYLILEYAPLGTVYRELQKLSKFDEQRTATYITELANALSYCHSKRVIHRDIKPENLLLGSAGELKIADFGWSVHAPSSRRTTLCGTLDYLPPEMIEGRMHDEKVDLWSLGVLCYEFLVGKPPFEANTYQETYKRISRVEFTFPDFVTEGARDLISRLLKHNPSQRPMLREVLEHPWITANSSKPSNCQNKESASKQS
The experiment can be described thus: X-ray crystal structure (Ki by fluorescence anisotropy, from ref […]). Format: binding. Set-up: gene AURKA. Conditions: cited from earlier work. On the technique in general: Polarisation of emitted light reports the rotation of a fluorescent probe.

In experiment [2] the target is T1, Aurora A kinase. The experiment is described as follows: fluorescence anisotropy competition assay (TPX2 displacement). In kind it is binding. Set-up: gene AURKA; with TPX2. To be noted: read-out: K i ^b.

For `O=C(O)c1cc(-c2cccc(F)c2)nc2ccccc12` [compound 2], the Ki on Aurora A kinase [1] was 16.5 µM.

In the case of `Cc1ccc(-c2cc(C(=O)O)c3ccccc3n2)cc1F` [compound 9], at Aurora A kinase [2], the Ki is 8.7 µM.

Regarding `Cc1ccc(-c2cc(C(=O)O)c3ccccc3n2)cc1Br` [compound 10], the Ki at Aurora A kinase [2] is 2.3 µM.

These data come from PMC5591577, “Computationally-guided optimization of small-molecule inhibitors of the Aurora A kinase–TPX2 protein–protein interaction” (Chemical Communications (Cambridge, England), 2017).
